Assay results reported in patent US8853258B2, “C-linked hydroxamic acid derivatives useful as antibacterial agents” (Pfizer Inc., priority 2009, dated 2014).
≈ marks a conversion by molar mass, not a printed value. Read-outs that look alike come from different tables or passages of the source.

Assays:
[1] = molecular target: Pseudomonas aeruginosa LpxC enzyme (Pseudomonas aeruginosa (strain ATCC 15692 / DSM 22644 / CIP 104116 / JCM 14847 / LMG 12228 / 1C / PRS 101 / PAO1), UniProt P47205); assay: IC50 Assay, LpxC Enzyme from P. aeruginosa (PA LpxC Enzyme IC50); format: biochemical
Outline: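 Reaction run 1 h then stopped with 1N HCl. Conversion measured by RapidFire high-throughput mass spectrometry. IC50 derived from percent conversion relative to a no-enzyme control.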

[2] = test system: Acinetobacter baumanii/haemolyticus: Multidrug-resistant clinical isolate (AB-3167); assay: MIC determination (CLSI), AB-3167; format: cell-based; conditions: for MIC: Acinetobacter baumannii
Outline: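 Multidrug-resistant clinical isolate AB-3167 (A. baumannii/haemolyticus) tested for minimum inhibitory concentration following CLSI dilution susceptibility standards M7-A7 and M100-S18.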

[3] = test system: Klebsiella pneumoniae: Ciprofloxacin-resistant isolate, ESBL, clinical isolate (KP-3700); assay: MIC determination (CLSI), KP-3700; format: cell-based
Outline: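 MIC measured by broth dilution according to CLSI M7-A7 and M100-S18 standards. Test organism was a ciprofloxacin-resistant, ESBL-expressing clinical isolate.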

[4] = test system: Escherichia coli EC-1: VOGEL, mouse virulent; assay: MIC determination (CLSI), EC-1; format: cell-based; conditions: for MIC: Escherichia coli
Outline: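 E. coli Vogel, a mouse-virulent strain (EC-1), was tested. MICs were set by dilution susceptibility testing per CLSI standards M7-A7/M100-S18.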

[5] = test system: Pseudomonas aeruginosa UI-18: Wild-type (PA-7); assay: MIC determination (CLSI), PA-7; format: cell-based; conditions: for MIC: Pseudomonas aeruginosa
Outline: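 MIC by dilution method per CLSI M7-A7 and M100-S18 guidelines. Strain: wild-type Pseudomonas aeruginosa UI-18.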

[6] = Table 3, read-out: PA LpxC enzyeme IC^50
[7] = P. aeruginosa LpxC enzyme, read-out: PA LpxC enzyeme IC50
[8] = Acinetobacter baumanii/haemolyticus multidrug-resistant clinical isolate AB-3167
[9] = Escherichia coli EC-1 VOGEL, mouse virulent
[10] = Pseudomonas aeruginosa UI-18 wild-type PA-7
[11] = Acinetobacter baumanii/haemolyticus AB-3167
[12] = Pseudomonas aeruginosa UI-18 (PA-7)
[13] = Table 1, read-out: PA LpxC enzyeme IC50
[14] = Table 1, MIC, read-out: AB-3167 (MIC)
[15] = Table 1, MIC, read-out: PA-7 (MIC)

| SMILES | KP-3700 MIC [3] | IC50 [1, 7] | AB-3167 MIC [2, 8] | EC-1 MIC [4, 9] | PA-7 MIC [5, 10] | other results |
| --- | --- | --- | --- | --- | --- | --- |
| CCc1ccccc1COc1ccc(CCC(C)(C(=O)NO)S(C)(=O)=O)cc1 (centres unmarked) [Example 306, 4-{4-[(2-ethylbenzyl)oxy]phenyl}-N-hydroxy-2-methyl-2-(methylsulfonyl)butanamide] | 32 mg/L |  |  |  |  | IC50 [1, 6]: 0.813 nM; MIC ([2]; Table 3, read-out: AB-3167 MIC): 16 µg/mL (≈ 39.5 µM); MIC ([4]; read-out: EC-1 MIC): 8 µg/mL (≈ 19.7 µM); MIC ([5]; Table 3, read-out: PA-7 MIC): 16 µg/mL (≈ 39.5 µM) |
| CC(CCc1ccc(OCc2ccccc2C#N)cc1)(C(=O)NO)S(C)(=O)=O (centres unmarked) [Example 285, 4-{4-[(2-cyanobenzyl)oxy]phenyl}-N-hydroxy-2-methyl-2-(methylsulfonyl)butanamide] | ≧64 mg/L |  |  |  |  | IC50 [1, 6]: 10 nM; MIC ([2]; Table 3, read-out: AB-3167 MIC): ≥ 64 µg/mL; MIC ([4]; read-out: EC-1 MIC): 32 µg/mL (≈ 79.5 µM); MIC ([5]; Table 3, read-out: PA-7 MIC): 32 µg/mL (≈ 79.5 µM) |
| C[C@@](CCc1ccc(-c2ccc(OCCN3CCOCC3)cc2)cc1)(C(=O)NO)S(C)(=O)=O [Example 172] | 4 mg/L | 0.512 nM | ≧64 mg/L | 0.5 mg/L | 4 mg/L |  |
| C[C@@](CCc1ccc(-c2ccc(C(=O)N3CCC(O)CC3)cc2)cc1)(C(=O)NO)S(C)(=O)=O [Example 192] | ≧64 mg/L | 3.39 nM | ≧64 mg/L | ≧64 mg/L | 16 mg/L |  |
| CC(=O)c1ccc(-c2ccc(CC[C@](C)(C(=O)NO)S(C)(=O)=O)cc2)cn1 [Example 190] | 4 mg/L | 0.246 nM | ≧64 mg/L | 4 mg/L | 2 mg/L |  |
| CC(CCc1ccc(-c2ccc3c(c2)C(=O)NC3)c(F)c1)(C(=O)NO)S(C)(=O)=O (centres unmarked) [Example 203] | 32 mg/L | 0.659 nM |  |  |  | AB-3167 MIC [2, 11]: ≧64 mg/L; EC-1 MIC ([4]; Escherichia coli EC-1): 8 mg/L; PA-7 MIC [5, 12]: 4 mg/L |
| C[C@@](CCc1ccc(-c2ccc3c(c2)CNC3=O)cc1)(C(=O)NO)S(C)(=O)=O [Example 199] | 32 mg/L | 0.266 nM | ≧64 mg/L | 8 mg/L | 2 mg/L |  |
| CC(CCc1ccc(-c2ccc(F)cc2)c(F)c1)(C(=O)NO)S(C)(=O)=O (centres unmarked) [Example 167] | 4 mg/L | 0.235 nM | 8 mg/L | 1 mg/L | 0.5 mg/L |  |
| CC(CCc1ccc(-c2ccc(C#N)c(Cl)c2)cc1)(C(=O)NO)S(C)(=O)=O (centres unmarked) [Example 126] | 2 mg/L | 0.329 nM | 8 mg/L | 0.5 mg/L | 0.5 mg/L |  |
| COc1ccc(-c2ccc(CCC(C)(C(=O)NO)S(C)(=O)=O)cc2F)cn1 (centres unmarked) [Example 213] | 8 mg/L | 0.518 nM |  |  |  | AB-3167 MIC [2, 11]: ≧64 mg/L; EC-1 MIC ([4]; Escherichia coli EC-1): 2 mg/L; PA-7 MIC [5, 12]: 2 mg/L |
| Cc1cc(F)ccc1-c1ccc(CCC(C)(C(=O)NO)S(C)(=O)=O)cc1 (centres unmarked) [Example 98] | 16 mg/L | 1.23 nM | 32 mg/L | 4 mg/L | 2 mg/L |  |
| CC(CCc1ccc(-c2cnc3ccccc3c2)cc1F)(C(=O)NO)S(C)(=O)=O (centres unmarked) [Example 200] | 8 mg/L | 0.463 nM | ≧64 mg/L | 1 mg/L | 4 mg/L |  |
| CC(=O)c1ccc(-c2ccc(CCC(C)(C(=O)NO)S(C)(=O)=O)c(F)c2)cn1 (centres unmarked) [Example 188] | 8 mg/L | 0.348 nM | ≧64 mg/L | 8 mg/L | 2 mg/L |  |
| CC(CCc1ccc(COc2ccccc2)cc1)(C(=O)NO)S(C)(=O)=O (centres unmarked) [Example 25, N-Hydroxy-2-methyl-2-(methylsulfonyl)-4-[4-(phenoxymethyl)phenyl]butanamide] | 16 mg/L |  |  |  |  | IC50 [1, 13]: 2.38 nM; MIC [2, 14]: 16 µg/mL (≈ 42.4 µM); MIC ([4]; read-out: EC-1: (MIC)): 4 µg/mL (≈ 10.6 µM); MIC [5, 15]: 8 µg/mL (≈ 21.2 µM) |
| CC(C)Cc1ccc(-c2ccc(CCC(C)(C(=O)NO)S(C)(=O)=O)cc2)cc1 (centres unmarked) [Example 63] | 4 mg/L | 0.356 nM | 8 mg/L | 2 mg/L | 16 mg/L |  |
| CC(CCc1ccc(-c2ccccc2Cl)cc1)(C(=O)NO)S(C)(=O)=O (centres unmarked) [Example 81] | 8 mg/L | 0.448 nM | 32 mg/L | 2 mg/L | 1 mg/L |  |

| SMILES | KP-3700 MIC [3] | IC50 [1, 7] | AB-3167 MIC [2, 8] | EC-1 MIC [4, 9] | PA-7 MIC [5, 10] | other results |
| --- | --- | --- | --- | --- | --- | --- |
| CC(CCc1ccc(OCc2ccc(F)cc2F)cc1)(C(=O)NO)S(C)(=O)=O (centres unmarked) [Example 294, 4-{4-[(2,4-difluorobenzyl)oxy]phenyl}-N-hydroxy-2-methyl-2-(methylsulfonyl)butanamide] | 16 mg/L |  |  |  |  | IC50 [1, 6]: 0.992 nM; MIC ([2]; Table 3, read-out: AB-3167 MIC): 32 µg/mL (≈ 77.4 µM); MIC ([4]; read-out: EC-1 MIC): 4 µg/mL (≈ 9.67 µM); MIC ([5]; Table 3, read-out: PA-7 MIC): 4 µg/mL (≈ 9.67 µM) |
| CC(CCc1ccc(-c2ccc(CCO)cc2)cc1)(C(=O)NO)S(C)(=O)=O (centres unmarked) [Example 34] | 8 mg/L | 0.331 nM | ≧64 mg/L | 4 mg/L | 4 mg/L |  |
| CC(CCc1ccc(COc2cccc(F)c2)cc1)(C(=O)NO)S(C)(=O)=O (centres unmarked) [Example 229] | 32 mg/L | 3.24 nM |  |  |  | AB-3167 MIC [2, 11]: 16 mg/L; EC-1 MIC ([4]; Escherichia coli EC-1): 8 mg/L; PA-7 MIC [5, 12]: 8 mg/L |
| CC(CCc1ccc(-c2ccc3[nH]ccc3c2)cc1)(C(=O)NO)S(C)(=O)=O (centres unmarked) [Example 57] | 8 mg/L | 0.295 nM | 8 mg/L | 0.5 mg/L | 0.5 mg/L |  |
| CC(CCc1ccc(OCc2ccc(Cl)cc2F)cc1)(C(=O)NO)S(C)(=O)=O (centres unmarked) [Example 307, 4-{4-[(4-chloro-2-fluorobenzyl)oxy]phenyl}-N-hydroxy-2-methyl-2-(methylsulfonyl)butanamide] | 8 mg/L |  |  |  |  | IC50 [1, 6]: 0.393 nM; MIC ([2]; Table 3, read-out: AB-3167 MIC): 16 µg/mL (≈ 37.2 µM); MIC ([4]; read-out: EC-1 MIC): 2 µg/mL (≈ 4.65 µM); MIC ([5]; Table 3, read-out: PA-7 MIC): 4 µg/mL (≈ 9.3 µM) |
| C[C@@](CCc1ccc(-c2cnc3cc[nH]c3c2)cc1)(C(=O)NO)S(C)(=O)=O [Example 211] | ≧64 mg/L | 11.1 nM |  |  |  | AB-3167 MIC [2, 11]: ≧64 mg/L; EC-1 MIC ([4]; Escherichia coli EC-1): ≧64 mg/L; PA-7 MIC [5, 12]: 32 mg/L |
| Cc1cccc(Cc2noc(COc3ccc(CCC(C)(C(=O)NO)S(C)(=O)=O)cc3)n2)c1 (centres unmarked) [Example 289, N-hydroxy-2-methyl-4-(4-{[3-(3-methylbenzyl)-1,2,4-oxadiazol-5-yl]methoxy}phenyl)-2-(methylsulfonyl)butanamide] | ≧64 mg/L |  |  |  |  | IC50 [1, 6]: 10.4 nM; MIC ([2]; Table 3, read-out: AB-3167 MIC): ≥ 64 µg/mL; MIC ([4]; read-out: EC-1 MIC): 32 µg/mL (≈ 67.6 µM); MIC ([5]; Table 3, read-out: PA-7 MIC): ≥ 64 µg/mL |
| CC(=O)c1ccc(-c2ccc(CCC(C)(C(=O)NO)S(C)(=O)=O)cn2)cc1 (centres unmarked) [Example 133] | ≧64 mg/L | 0.985 nM | ≧64 mg/L | 16 mg/L | 16 mg/L |  |
| CC(CCc1ccc(-c2cc(F)ccc2F)cc1)(C(=O)NO)S(C)(=O)=O (centres unmarked) [Example 38] | 32 mg/L | 0.752 nM | 16 mg/L | 2 mg/L | 1 mg/L |  |
| CC(CCc1ccc(-c2ccc(F)c(Cl)c2)cc1)(C(=O)NO)S(C)(=O)=O (centres unmarked) [Example 104] | 2 mg/L | 0.127 nM | 2 mg/L | 0.5 mg/L | 1 mg/L |  |
| CC(CCc1ccc(C2=CCCCCC2)cc1)(C(=O)NO)S(C)(=O)=O (centres unmarked) [Example 13, 4-(4-Cyclohept-1-en-1-ylphenyl)-N-hydroxy-2-methyl-2-(methylsulfonyl)butanamide] | 4 mg/L |  |  |  |  | IC50 [1, 13]: 0.29 nM; MIC [2, 14]: 0.5 µg/mL (≈ 1.37 µM); MIC ([4]; read-out: EC-1: (MIC)): 2 µg/mL (≈ 5.47 µM); MIC [5, 15]: 1 µg/mL (≈ 2.74 µM) |
| C[C@@](CCc1ccc(-c2cc3ccccc3[nH]2)cc1)(C(=O)NO)S(C)(=O)=O [Example 218] | 2 mg/L | 0.034 nM |  |  |  | AB-3167 MIC [2, 11]: 32 mg/L; EC-1 MIC ([4]; Escherichia coli EC-1): 0.5 mg/L; PA-7 MIC [5, 12]: 0.5 mg/L |
| Cc1cc(-c2ccc(F)cc2)ccc1CCC(C)(C(=O)NO)S(C)(=O)=O (centres unmarked) [Example 157] | 4 mg/L | 0.337 nM | 8 mg/L | 1 mg/L | 4 mg/L |  |
| CC(CCc1ccc(-c2ccc(O)cc2)cc1F)(C(=O)NO)S(C)(=O)=O (centres unmarked) [Example 178] | 4 mg/L | 0.0592 nM | 8 mg/L | 1 mg/L | 1 mg/L |  |
| Cc1cccc(-c2ccc(CCC(C)(C(=O)NO)S(C)(=O)=O)cc2)c1C (centres unmarked) [Example 78] | 16 mg/L | 0.444 nM | ≧64 mg/L | 2 mg/L | 2 mg/L |  |
